Data on 6 compounds can be found in ChEMBL document CHEMBL1152381, “Investigation of aminopyridiopyrazinones as PDE5 inhibitors: Evaluation of modifications to the central ring system” (Bioorg Med Chem Lett, 2009).

Molecules are shown by their SMILES. Converted amounts (≈) assume the structure as drawn.

Data set [1] in a line: Selectivity ratio of IC50 for PDE11 to IC50 for PDE5.
Data set [2] is described as follows: Volume of distribution in Sprague-Dawley rat at 2 mg/kg, iv and 2 mg/kg, po. The class given is ADME, organism-based. Conditions: in vivo.
The nature of data set [3]: Plasma protein binding in Sprague-Dawley rat at 2 mg/kg, iv and 2 mg/kg, po. The class given is ADME, organism-based. Conditions: read-out: PPB (converted).
The nature of data set [4]: Metabolic stability in human liver microsomes assessed as compound remaining after 30 mins. The class given is ADME, Microsome. Conditions: read-out: Stability.
Data set [5] is described as follows: Clearance in Sprague-Dawley rat at 2 mg/kg, iv and 2 mg/kg, po. The class given is ADME, organism-based. Conditions: in vivo.
Data set [6] is described as follows: Selectivity ratio of IC50 for PDE6 to IC50 for PDE5.
Data set [7] in a line: Half life in Sprague-Dawley rat at 2 mg/kg, iv and 2 mg/kg, po. The class given is ADME, organism-based. Conditions: in vivo.
Data set [8] is described as follows: Inhibition of PDE11.
Data set [9] has as its target hERG (KCNH2) (Homo sapiens, UniProt Q12809). The experiment in a line: Displacement of dofetilide from human ERG at 10 uM. Conditions: probe dofetilide.
For data set [10], the target named is cGMP-specific 3',5'-cyclic phosphodiesterase (Homo sapiens, UniProt O76074). Briefly: Inhibition of PDE5.
Data set [11] is described as follows: Inhibition of PDE6.
A short description of data set [12]: Aqueous solubility at pH 7.4. The class given is physicochemical.
Data set [13] deals with Voltage-gated inwardly rectifying potassium channel KCNH2 (Homo sapiens, UniProt Q12809). The experiment in a line: Inhibition of human ERG by patch-clamp electrophysiology assay.
Voltage-gated inwardly rectifying potassium channel KCNH2, sequence (Q12809 whole entry): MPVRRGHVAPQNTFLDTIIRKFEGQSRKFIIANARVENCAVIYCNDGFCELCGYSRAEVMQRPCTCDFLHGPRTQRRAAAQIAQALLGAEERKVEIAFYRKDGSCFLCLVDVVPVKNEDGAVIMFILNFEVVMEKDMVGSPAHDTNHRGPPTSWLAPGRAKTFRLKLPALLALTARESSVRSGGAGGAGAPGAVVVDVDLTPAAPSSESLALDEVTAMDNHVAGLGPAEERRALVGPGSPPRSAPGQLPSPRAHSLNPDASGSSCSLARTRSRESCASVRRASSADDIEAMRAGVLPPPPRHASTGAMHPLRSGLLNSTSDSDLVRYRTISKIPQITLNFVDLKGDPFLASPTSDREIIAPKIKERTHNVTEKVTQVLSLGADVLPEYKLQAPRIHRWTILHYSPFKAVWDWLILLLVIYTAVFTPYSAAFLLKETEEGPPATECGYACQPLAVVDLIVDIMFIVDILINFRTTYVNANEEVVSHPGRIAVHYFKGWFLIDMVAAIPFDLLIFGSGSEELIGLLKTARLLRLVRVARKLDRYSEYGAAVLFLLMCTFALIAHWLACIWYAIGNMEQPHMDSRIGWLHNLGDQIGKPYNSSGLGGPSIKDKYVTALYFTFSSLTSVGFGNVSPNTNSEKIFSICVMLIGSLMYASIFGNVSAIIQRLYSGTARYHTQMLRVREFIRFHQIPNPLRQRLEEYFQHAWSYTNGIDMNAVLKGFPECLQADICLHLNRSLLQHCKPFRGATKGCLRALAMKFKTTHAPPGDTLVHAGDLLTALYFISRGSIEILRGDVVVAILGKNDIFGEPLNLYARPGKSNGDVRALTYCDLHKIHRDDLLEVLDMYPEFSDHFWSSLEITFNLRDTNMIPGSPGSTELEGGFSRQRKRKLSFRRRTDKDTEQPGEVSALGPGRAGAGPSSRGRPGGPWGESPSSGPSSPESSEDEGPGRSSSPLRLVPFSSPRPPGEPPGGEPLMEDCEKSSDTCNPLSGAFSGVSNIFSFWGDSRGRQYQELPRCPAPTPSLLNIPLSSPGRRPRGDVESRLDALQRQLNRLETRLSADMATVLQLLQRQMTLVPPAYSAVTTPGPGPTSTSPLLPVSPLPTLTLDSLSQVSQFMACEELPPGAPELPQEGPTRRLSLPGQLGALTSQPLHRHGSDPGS
Data set [14] concerns Rattus norvegicus. Briefly: Antihypertensive activity in SHR rat assessed as reduction in systemic arterial blood pressure at 1.5 mg/kg, ip administered as single bolus dose measured for > 3 hrs. The class given is functional, Artery. Conditions: route intraperitoneal.
The nature of data set [15]: Metabolic stability in human hepatocytes assessed as compound remaining after 30 mins. The class given is ADME, cell-based, Hepatocyte. Conditions: read-out: Stability.
Data set [16] is described as follows: Bioavailability in Sprague-Dawley rat at 2 mg/kg, iv and 2 mg/kg, po. The class given is ADME, organism-based. Conditions: in vivo.

hERG (KCNH2), sequence (Q12809 whole entry): as above

As to `CCCOCCn1c(=O)c(NCCN2CCOCC2)nc2ncc(-c3ccc(OC)nc3)nc21`, the Ratio IC50 in data set [1] was 335; in [6], below 30. In addition, the Vd in [2] was 5.2 L/kg. Also, the fraction unbound in data set [3] was 0.088. In [4], the remaining at 0.5 h stood at 12%. Besides, in data set [5], the clearance is 151 mL/min/kg. For the same compound, the half-life (as a rule, how long it takes for the measured level to halve) in [7] is 36 min. Further, the concentration for half-maximal inhibition (IC50) (commonly the concentration that inhibits the measured activity by half) in data set [8] was 3560 nM; in [10] it was 1.21 nM; in [11], 297 nM. In addition, the inhibition (commonly the change of the read-out against control, counted positive when it falls) at 10 µM in [9] stood at 11%.
Regarding `CCCOCCn1c(=O)c(NCCN2CCOCC2)nc2ncc(-c3ccc(OC)nc3)cc21`, in data set [2], the Vd was 18.8 L/kg. The solubility (usually the concentration that dissolves in the medium under given conditions) in data set [12] amounted to 46 µM (≈ 21.6 µg/mL). Moreover, in data set [3], the fraction unbound is 0.235. Further, the remaining at 0.5 h in [4] was 18%. For the same compound, in [13], the “inhibition (INH)” value worked out at 34%. In addition, the clearance in data set [5] amounted to 178 mL/min/kg. This compound showed a half-life in data set [7] of 204 min. Further, in data set [14], the Activity was determined as 25 mmHg. Moreover, the concentration for half-maximal inhibition (IC50) in [8] is 1390 nM; in data set [10], 0.34 nM; in [11] it was 61.8 nM. In [9], this compound gave an inhibition at 10 µM of 34%.
In [12], `CCCOCCn1c(=O)c(NCCN2CCOCC2)nc2cnc(-c3ccc(OC)nc3)nc21` registered a solubility of 4.6 µM (≈ 2.16 µg/mL). Moreover, in [4], the remaining at 0.5 h worked out at 22%. The half-inhibitory concentration (IC50) is 1470 nM in [8], 1.21 nM in data set [10] and 83 nM in data set [11]. The compound also came in with an inhibition at 10 µM in [9] of 15%.
For `CCCOCCn1c(=O)c(NCCN2CCOCC2)nc2ccc(-c3ccc(OC)nc3)cc21`, the IC50 is above 1990 nM in [8], 0.9 nM in [10] and 177 nM in data set [11]. Moreover, the remaining at 0.5 h in data set [15] is 20%. The same compound gave an inhibition at 10 µM in data set [9] of 43%.
In turn, `CCCOCCn1c(=O)c(NCCN2CCOCC2)nc2ccc(-c3ccc(OC)nc3)nc21` registered a Vd in data set [2] of 8 L/kg. Also, the bioavailability (usually dose-corrected exposure relative to a reference, in per cent) in data set [16] turned out to be 23%. This compound showed a solubility in data set [12] of 4.6 µM (≈ 2.16 µg/mL). For the same compound, in data set [3], the fraction unbound was 0.104. In [4], the remaining at 0.5 h came out at 10%. Also, in data set [5], the clearance worked out at 67.6 mL/min/kg. In [7], this compound showed a half-life of 186 min. In addition, the 50% inhibitory concentration (IC50) was determined as 1540 nM in data set [8] and 339 nM in data set [11]. This compound returned an inhibition at 10 µM in [9] of 14%.
`CCCOCCn1c(=O)c(NCCN2CCOCC2)nc2cnc(-c3ccc(OC)nc3)cc21` gave a Vd in [2] of 1.6 L/kg. This compound yielded a bioavailability in data set [16] of 21%. In data set [12], this compound had a solubility of 18 µM (≈ 8.43 µg/mL). Moreover, the fraction unbound in data set [3] was 0.5. Also, the remaining at 0.5 h in data set [4] is 38%. Moreover, the clearance in data set [5] worked out at 33.6 mL/min/kg. Also, the half-life in [7] is 192 min. In addition, the IC50 in [8] amounted to 346 nM; in data set [10], 0.07 nM; in data set [11] it was 11.3 nM. Further, the inhibition at 10 µM in data set [9] came out at 23%.
